In ChEMBL document CHEMBL3045172, “Assessment of resistance risk in Spodoptera exigua (Hübner) (Lepidoptera: Noctuidae) to chlorantraniliprole” (2011):
Values after ≈ are worked out from the molar mass of the structure shown.

Key:
Type in all cases: functional
Spodoptera exigua [1] = experiment: Resistance factor, LC50 for Spodoptera exigua F11 neonate larvae to LC50 for Spodoptera exigua SS neonate larvae
Spodoptera exigua [2] = experiment: Insecticidal activity against susceptible strain Spodoptera exigua SS neonate larvae assessed as mortality at 27 +/- 1 degC, 60 to 70% RH measured after 72 hr
Spodoptera exigua [3] = experiment: Insecticidal activity against Spodoptera exigua F11 neonate larvae assessed as mortality at 27 +/- 1 degC, 60 to 70% RH measured after 72 hr; details: F11, 72 h
Spodoptera exigua [4] = experiment: Resistance factor, LC50 for Spodoptera exigua F22 neonate larvae to LC50 for Spodoptera exigua SS neonate larvae
Spodoptera exigua [5] = experiment: Resistance factor, LC50 for Spodoptera exigua F0 neonate larvae to LC50 for Spodoptera exigua SS neonate larvae
Spodoptera exigua [6] = experiment: Insecticidal activity against Spodoptera exigua F22 neonate larvae assessed as mortality at 27 +/- 1 degC, 60 to 70% RH measured after 72 hr; details: F22, 72 h
Spodoptera exigua [7] = experiment: Insecticidal activity against Spodoptera exigua F0 neonate larvae assessed as mortality at 27 +/- 1 degC, 60 to 70% RH measured after 72 hr; details: F0, 72 h
Spodoptera exigua [8] = experiment: Resistance factor, LC50 for Spodoptera exigua F11 neonate larvae to LC50 for Spodoptera exigua F0 neonate larvae
Spodoptera exigua [9] = experiment: Resistance factor, LC50 for Spodoptera exigua F22 neonate larvae to LC50 for Spodoptera exigua F0 neonate larvae

Compound `CNC(=O)c1cc(Cl)cc(C)c1NC(=O)c1cc(Br)nn1-c1ncccc1Cl` [CHLORANTRANILIPROLE] has a RatioLC50 (Spodoptera exigua [1]) of 56.9, an LC50 (Spodoptera exigua [2]) of 0.0137 µg/mL (≈ 0.0284 µM) and an LC50 (Spodoptera exigua [3]) of 0.78 µg/mL (≈ 1.61 µM). The RatioLC50 (Spodoptera exigua [4]) was 137.4, the RatioLC50 (Spodoptera exigua [5]) was 11.4 and the LC50 (Spodoptera exigua [6]) was 1.88 µg/mL (≈ 3.9 µM). For the same compound, the LC50 (Spodoptera exigua [7]) was 0.157 µg/mL (≈ 0.325 µM), the RatioLC50 (Spodoptera exigua [8]) was 5 and the RatioLC50 (Spodoptera exigua [9]) was 12.
